Test results published in patent publication US10766869B2, “Triazoles for the treatment of demyelinating dieases” (Vertex Pharmaceuticals Incorporated, priority 2015, dated 2020).

Test system: primary rat mixed cortical cells
Assay: In vitro myelination assay (MBP positive myelin strands, fold myelin pixels above background)
Assay type: cell-based
Conditions: for fold induction at 1 µM / fold induction at 10 µM: Rattus norvegicus, read-out: Fold myelin pixels above background relative to baseline of no added compound
In short: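 P1 rat mixed cortical cultures (neurons, OPCs, oligodendrocytes, astrocytes, microglia) grown 14 days at 37 °C with compound, half-medium refreshed with compound on days 6 and 10. Fixed cells stained for MBP; MBP-positive myelin strand pixels per well quantified by automated imaging, reported as fold over no-compound baseline at 1.0 and 10.0 μM.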

Compound	fold induction at 1 µM (1.0 μM compound)	fold induction at 10 µM (10.0 μM compound)	Fold myelin pixels above background relative to baseline of no added compound (1.0 μM compound)	Fold myelin pixels above background relative to baseline of no added compound (10.0 μM compound)
[2H]C([2H])([2H])C(=O)N1C([2H])([2H])C([2H])([2H])N(c2cc(C)cc(Nc3ncn(-c4cc(F)cc(F)c4)n3)c2)C([2H])([2H])C1([2H])[2H] [Compound 959, 2,2,2-trideuterio-1-[2,2,3,3,5,5,6,6-octadeuterio-4-[3-[[1-(3,5-difluorophenyl)-1,2,4-triazol-3-yl]amino]-5-methyl-phenyl]piperazin-1-yl]ethanone]	1 to 10	≤ 1	–	–
CCC(CN1CCOCC1)Nc1cc(C)cc(Nc2ncn(-c3cc(F)cc(F)c3)n2)c1 (stereo not drawn) [Compound 960, N3-[1-(3,5-difluorophenyl)-1,2,4-triazol-3-yl]-5-methyl-N1-[1-(morpholinomethyl)propyl]benzene-1,3-diamine]	1 to 10	≤ 1	–	–
[2H]C1([2H])N(C(=O)C2CC2)C([2H])([2H])C([2H])([2H])N(c2cc(C)cc(Nc3ncn(-c4cc(F)cc(F)c4)n3)c2)C1([2H])[2H] [Compound 961, cyclopropyl-[2,2,3,3,5,5,6,6-octadeuterio-4-[3-[[1-(3,5-difluorophenyl)-1,2,4-triazol-3-yl]amino]-5-methyl-phenyl]piperazin-1-yl]methanone]	1 to 10	1 to 10	–	–
CCOCCOC1CCN(c2cc(C)cc(Nc3ncn(-c4cc(F)cc(F)c4)n3)c2)CC1 [Compound 962, 1-(3,5-difluorophenyl)-N-[3-[4-(2-ethoxyethoxy)-1-piperidyl]-5-methyl-phenyl]-1,2,4-triazol-3-amine]	1 to 10	1 to 10	–	–
Cc1cc(OCC(=O)N2CCCC2)cc(Nc2ncn(-c3cc(F)cc(F)c3)n2)c1C [Compound 965, 2-[3-[[1-(3,5-difluorophenyl)-1,2,4-triazol-3-yl]amino]-4,5-dimethyl-phenoxy]-1-pyrrolidin-1-yl-ethanone]	10 to 100	10 to 100	–	–
Cc1cc(Nc2ncn(-c3cccnc3)n2)cc(N2CC3(C2)CN(C(C)C)C3)c1 [Compound 966, N-[3-(2-isopropyl-2,6-diazaspiro[3.3]heptan-6-yl)-5-methyl-phenyl]-1-(3-pyridyl)-1,2,4-triazol-3-amine]	1 to 10	≤ 1	–	–
Cc1cc(Nc2ncn(-c3cnccn3)n2)cc(N2CC3(C2)CN(C(C)C)C3)c1 [Compound 967, N-[3-(2-isopropyl-2,6-diazaspiro[3.3]heptan-6-yl)-5-methyl-phenyl]-1-pyrazin-2-yl-1,2,4-triazol-3-amine]	10 to 100	≤ 1	–	–
Cc1cc(NCC2CN(C3CC3)CCO2)cc(Nc2ncn(-c3cc(F)cc(F)c3)n2)c1 (stereo not drawn) [Compound 968, N3-[(4-cyclopropylmorpholin-2-yl)methyl]-N1-[1-(3,5-difluorophenyl)-1,2,4-triazol-3-yl]-5-methyl-benzene-1,3-diamine]	1 to 10	1 to 10	–	–
Cc1cc(Nc2ncn(-c3cc(F)cc(F)c3)n2)c(F)c(N(C)C2COC2)c1 [Compound 969, N3-[1-(3,5-difluorophenyl)-1,2,4-triazol-3-yl]-2-fluoro-N1,5-dimethyl-N1-(oxetan-3-yl)benzene-1,3-diamine]	1 to 10	≤ 1	–	–
Cc1cc(Nc2ncn(-c3cc(F)cc(F)c3)n2)cc(NC2CCOC(C)(C)C2)c1 (stereo not drawn) [Compound 970, N3-[1-(3,5-difluorophenyl)-1,2,4-triazol-3-yl]-N1-(2,2-dimethyltetrahydropyran-4-yl)-5-methyl-benzene-1,3-diamine]	10 to 100	≤ 1	–	–
CC(=O)N1CC(Oc2cc(C)c(C)c(Nc3ncn(-c4cc(F)cc(F)c4)n3)c2)C1 [Compound 971, 1-[3-[3-[[1-(3,5-difluorophenyl)-1,2,4-triazol-3-yl]amino]-4,5-dimethyl-phenoxy]azetidin-1-yl]ethanone]	1 to 10	1 to 10	–	–
Cc1cc(Nc2ncn(-c3cc(F)cc(F)c3)n2)cc(N2CCOC(C3CCCO3)C2)c1 (stereo not drawn) [Compound 972, 1-(3,5-difluorophenyl)-N-[3-methyl-5-(2-tetrahydrofuran-2-ylmorpholin-4-yl)phenyl]-1,2,4-triazol-3-amine]	–	–	− (≤1)	+ (>1 to 10x)
CCOCCN1CCN(c2cc(C)cc(Nc3ncn(-c4cc(F)cc(F)c4)n3)c2)CC1 [Compound 973, 1-(3,5-difluorophenyl)-N-[3-[4-(2-ethoxyethyl)piperazin-1-yl]-5-methyl-phenyl]-1,2,4-triazol-3-amine]	10 to 100	≤ 1	–	–
CCC1COC(C)CN1CCNc1cc(C)cc(Nc2ncn(-c3cc(F)cc(F)c3)n2)c1 (stereo not drawn) [Compound 974, N3-[1-(3,5-difluorophenyl)-1,2,4-triazol-3-yl]-N1-[2-(5-ethyl-2-methyl-morpholin-4-yl)ethyl]-5-methyl-benzene-1,3-diamine]	10 to 100	≤ 1	–	–
Cc1cc(Nc2ncn(-c3cc(F)cc(F)c3)n2)cc(N2CC(N3CCN(C)CC3)C2)c1 [Compound 975, 1-(3,5-difluorophenyl)-N-[3-methyl-5-[3-(4-methylpiperazin-1-yl)azetidin-1-yl]phenyl]-1,2,4-triazol-3-amine]	1 to 10	≤ 1	–	–
CCOC1CCN(c2cc(C)cc(Nc3ncn(-c4cc(F)cc(F)c4)n3)c2)CC1 [Compound 976, 1-(3,5-difluorophenyl)-N-[3-(4-ethoxy-1-piperidyl)-5-methyl-phenyl]-1,2,4-triazol-3-amine]	1 to 10	10 to 100	–	–
Cc1cc(Nc2ncn(-c3ccc(F)c(F)c3)n2)cc(N2CC3(C2)CN(C(C)C)C3)c1 [Compound 977, 1-(3,4-difluorophenyl)-N-[3-(2-isopropyl-2,6-diazaspiro[3.3]heptan-6-yl)-5-methyl-phenyl]-1,2,4-triazol-3-amine]	1 to 10	≤ 1	–	–
Cc1cc(Nc2ncn(-c3ccc(F)c(F)c3)n2)c(F)c(OC2CCOC2)c1 (stereo not drawn) [Compound 978, 1-(3,4-difluorophenyl)-N-(2-fluoro-5-methyl-3-tetrahydrofuran-3-yloxy-phenyl)-1,2,4-triazol-3-amine]	10 to 100	1 to 10	–	–
[2H]C1([2H])N(c2cc(C)cc(Nc3ncn(-c4cc(F)cc(F)c4)n3)c2)C([2H])([2H])C([2H])([2H])N(C2COC2)C1([2H])[2H] [Compound 979, 1-(3,5-difluorophenyl)-N-[3-methyl-5-[2,2,3,3,5,5,6,6-octadeuterio-4-(oxetan-3-yl)piperazin-1-yl]phenyl]-1,2,4-triazol-3-amine]	100 to 1000	≤ 1	–	–
Cc1cc(Nc2ncn(-c3cc(F)cc(F)c3)n2)nc(OCC2CC2)c1 [Compound 980, 6-(cyclopropylmethoxy)-N-[1-(3,5-difluorophenyl)-1,2,4-triazol-3-yl]-4-methyl-pyridin-2-amine]	1 to 10	1 to 10	–	–
Cc1cc(Nc2ncn(-c3cc(F)cc(F)c3)n2)cc(N2CCCC3COCC32)c1 (stereo not drawn) [Compound 981, N-[3-(3,4,4a,5,7,7a-hexahydro-2H-furo[3,4-b]pyridin-1-yl)-5-methyl-phenyl]-1-(3,5-difluorophenyl)-1,2,4-triazol-3-amine]	1 to 10	10 to 100	–	–
